{"source": "patent US8192962B2", "about": "“Processes for detecting toxic substances” (Daikin Industries, Ltd., priority 2001, dated 2012)", "system": "Mitochondria-located protein genes", "test": "DNA chip mRNA expression in yeast, mitochondria-located protein genes (Table 2)", "assay_type": "cell-based, Saccharomyces cerevisiae S288C", "settings": "cells incubated two hours with the chemical substance", "method_in_brief": "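Measured as treated-to-untreated fluorescence ratio on a full-genome yeast DNA chip. Cells (S288C, YPD, 25° C.) were exposed in log phase for two hours to one chemical, dosed to curb growth without killing.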"}
{"compound": "[Cl][Pb][Cl]", "note": "[(4), PbCl2]", "values": [{"measurement": "The level of expressed mRNA in the presence of chemical substance/The level of expressed mRNA in the absence of chemical substance", "setting": "yeast gene YKL003C", "value": 1.8}, {"measurement": "The level of expressed mRNA in the presence of chemical substance/The level of expressed mRNA in the absence of chemical substance", "setting": "yeast gene YKL016C", "value": 1.7}, {"measurement": "The level of expressed mRNA in the presence of chemical substance/The level of expressed mRNA in the absence of chemical substance", "setting": "yeast gene YKL141W", "value": 1.7}, {"measurement": "The level of expressed mRNA in the presence of chemical substance/The level of expressed mRNA in the absence of chemical substance", "setting": "yeast gene YKL142W", "value": 1.4}, {"measurement": "The level of expressed mRNA in the presence of chemical substance/The level of expressed mRNA in the absence of chemical substance", "setting": "yeast gene YKL148C", "value": 0.7}, {"measurement": "The level of expressed mRNA in the presence of chemical substance/The level of expressed mRNA in the absence of chemical substance", "setting": "yeast gene YKL170W", "value": 1.9}, {"measurement": "The level of expressed mRNA in the presence of chemical substance/The level of expressed mRNA in the absence of chemical substance", "setting": "yeast gene YKL194C", "value": 1.6}, {"measurement": "The level of expressed mRNA in the presence of chemical substance/The level of expressed mRNA in the absence of chemical substance", "setting": "yeast gene YKR066C", "value": 0.7}, {"measurement": "The level of expressed mRNA in the presence of chemical substance/The level of expressed mRNA in the absence of chemical substance", "setting": "yeast gene YLL041C", "value": 1.0}, {"measurement": "The level of expressed mRNA in the presence of chemical substance/The level of expressed mRNA in the absence of chemical substance", "setting": "yeast gene YLR038C", "value": 2.1}, {"measurement": "The level of expressed mRNA in the presence of chemical substance/The level of expressed mRNA in the absence of chemical substance", "setting": "yeast gene YLR259C", "value": 1.6}, {"measurement": "The level of expressed mRNA in the presence of chemical substance/The level of expressed mRNA in the absence of chemical substance", "setting": "yeast gene YLR295C", "value": 1.7}, {"measurement": "The level of expressed mRNA in the presence of chemical substance/The level of expressed mRNA in the absence of chemical substance", "setting": "yeast gene YLR304C", "value": 0.7}, {"measurement": "The level of expressed mRNA in the presence of chemical substance/The level of expressed mRNA in the absence of chemical substance", "setting": "yeast gene YLR348C", "value": 1.2}, {"measurement": "The level of expressed mRNA in the presence of chemical substance/The level of expressed mRNA in the absence of chemical substance", "setting": "yeast gene YLR395C", "value": 1.9}, {"measurement": "The level of expressed mRNA in the presence of chemical substance/The level of expressed mRNA in the absence of chemical substance", "setting": "yeast gene YML054C", "value": 3.4}, {"measurement": "The level of expressed mRNA in the presence of chemical substance/The level of expressed mRNA in the absence of chemical substance", "setting": "yeast gene YML120C", "value": 1.9}, {"measurement": "The level of expressed mRNA in the presence of chemical substance/The level of expressed mRNA in the absence of chemical substance", "setting": "yeast gene YML129C", "value": 1.2}, {"measurement": "The level of expressed mRNA in the presence of chemical substance/The level of expressed mRNA in the absence of chemical substance", "setting": "yeast gene YMR023C", "value": 1.9}, {"measurement": "The level of expressed mRNA in the presence of chemical substance/The level of expressed mRNA in the absence of chemical substance", "setting": "yeast gene YMR035W", "value": 1.7}, {"measurement": "The level of expressed mRNA in the presence of chemical substance/The level of expressed mRNA in the absence of chemical substance", "setting": "yeast gene YMR083W", "value": 1.1}, {"measurement": "The level of expressed mRNA in the presence of chemical substance/The level of expressed mRNA in the absence of chemical substance", "setting": "yeast gene YMR089C", "value": 0.9}, {"measurement": "The level of expressed mRNA in the presence of chemical substance/The level of expressed mRNA in the absence of chemical substance", "setting": "yeast gene YMR152W", "value": 0.9}, {"measurement": "The level of expressed mRNA in the presence of chemical substance/The level of expressed mRNA in the absence of chemical substance", "setting": "yeast gene YMR203W", "value": 1.4}, {"measurement": "The level of expressed mRNA in the presence of chemical substance/The level of expressed mRNA in the absence of chemical substance", "setting": "yeast gene YMR267W", "value": 0.9}, {"measurement": "The level of expressed mRNA in the presence of chemical substance/The level of expressed mRNA in the absence of chemical substance", "setting": "yeast gene YNL055C", "value": 2.0}, {"measurement": "The level of expressed mRNA in the presence of chemical substance/The level of expressed mRNA in the absence of chemical substance", "setting": "yeast gene YNL071W", "value": 1.5}, {"measurement": "The level of expressed mRNA in the presence of chemical substance/The level of expressed mRNA in the absence of chemical substance", "setting": "yeast gene YNL073W", "value": 1.7}, {"measurement": "The level of expressed mRNA in the presence of chemical substance/The level of expressed mRNA in the absence of chemical substance", "setting": "yeast gene YNL104C", "value": 0.9}, {"measurement": "The level of expressed mRNA in the presence of chemical substance/The level of expressed mRNA in the absence of chemical substance", "setting": "yeast gene YNL256W", "value": 0.6}, {"measurement": "The level of expressed mRNA in the presence of chemical substance/The level of expressed mRNA in the absence of chemical substance", "setting": "yeast gene YOL096C", "value": 1.6}, {"measurement": "The level of expressed mRNA in the presence of chemical substance/The level of expressed mRNA in the absence of chemical substance", "setting": "yeast gene YOR020C", "value": 1.7}, {"measurement": "The level of expressed mRNA in the presence of chemical substance/The level of expressed mRNA in the absence of chemical substance", "setting": "yeast gene YOR037W", "value": 1.4}, {"measurement": "The level of expressed mRNA in the presence of chemical substance/The level of expressed mRNA in the absence of chemical substance", "setting": "yeast gene YOR100C", "value": 1.7}, {"measurement": "The level of expressed mRNA in the presence of chemical substance/The level of expressed mRNA in the absence of chemical substance", "setting": "yeast gene YOR130C", "value": 1.0}, {"measurement": "The level of expressed mRNA in the presence of chemical substance/The level of expressed mRNA in the absence of chemical substance", "setting": "yeast gene YOR142W", "value": 1.0}, {"measurement": "The level of expressed mRNA in the presence of chemical substance/The level of expressed mRNA in the absence of chemical substance", "setting": "yeast gene YOR150W", "value": 1.9}, {"measurement": "The level of expressed mRNA in the presence of chemical substance/The level of expressed mRNA in the absence of chemical substance", "setting": "yeast gene YOR176W", "value": 0.9}, {"measurement": "The level of expressed mRNA in the presence of chemical substance/The level of expressed mRNA in the absence of chemical substance", "setting": "yeast gene YOR187W", "value": 2.0}, {"measurement": "The level of expressed mRNA in the presence of chemical substance/The level of expressed mRNA in the absence of chemical substance", "setting": "yeast gene YOR316C", "value": 1.5}, {"measurement": "The level of expressed mRNA in the presence of chemical substance/The level of expressed mRNA in the absence of chemical substance", "setting": "yeast gene YPL040C", "value": 1.7}, {"measurement": "The level of expressed mRNA in the presence of chemical substance/The level of expressed mRNA in the absence of chemical substance", "setting": "yeast gene YPL134C", "value": 1.6}, {"measurement": "The level of expressed mRNA in the presence of chemical substance/The level of expressed mRNA in the absence of chemical substance", "setting": "yeast gene YPL135W", "value": 1.2}, {"measurement": "The level of expressed mRNA in the presence of chemical substance/The level of expressed mRNA in the absence of chemical substance", "setting": "yeast gene YPL215W", "value": 1.5}, {"measurement": "The level of expressed mRNA in the presence of chemical substance/The level of expressed mRNA in the absence of chemical substance", "setting": "yeast gene YPL262W", "value": 1.2}, {"measurement": "The level of expressed mRNA in the presence of chemical substance/The level of expressed mRNA in the absence of chemical substance", "setting": "yeast gene YPR024W", "value": 1.0}, {"measurement": "The level of expressed mRNA in the presence of chemical substance/The level of expressed mRNA in the absence of chemical substance", "setting": "yeast gene YPR037C", "value": 1.3}, {"measurement": "The level of expressed mRNA in the presence of chemical substance/The level of expressed mRNA in the absence of chemical substance", "setting": "yeast gene YPR047W", "value": 1.5}, {"measurement": "The level of expressed mRNA in the presence of chemical substance/The level of expressed mRNA in the absence of chemical substance", "setting": "yeast gene YPR067W", "value": 0.9}, {"measurement": "The level of expressed mRNA in the presence of chemical substance/The level of expressed mRNA in the absence of chemical substance", "setting": "yeast gene YPR134W", "value": 1.7}]}
